Measured values as given in patent publication US11535611B2, “Pyrazolo[3,4-B]pyridines and imidazo[1,5-B]pyridazines as PDE1 inhibitors” (H. Lundbeck A/S, priority 2017, dated 2022).
pIC50: −log10 of the molar value.

Columns and labels:
Assay type in all cases: biochemical
PDE1A = PDE1A (Homo sapiens (Human), UniProt P54750); assay: PDE1 inhibition assay, PDE1A; details: for pIC50: 15 nM tritium labelled cAMP, 1 hr at room temperature, SPA beads; for inhibition at 10 µM: @ 10 μM compound
Protocol: (§1) PDE1A, PDE1B and PDE1C assays were performed as follows: the assays were performed in 60 μL samples containing a fixed amount of the PDE1 enzyme (sufficient to convert 20-25% of the cyclic nucleotide substrate), a buffer (50 mM HEPES (4-(2-hydroxyethyl)-1-piperazineethanesulfonic acid) pH 7.6; 10 mM MgCl2; 0.02% Tween20), 0.1 mg/ml BSA (bovine serum albumin), 15 nM tritium labelled cAMP and varying amounts of inhibitors. Reactions were initiated by addition of the cyclic nucleotide substrate, and reactions were allowed to proceed for 1 hr at room temperature before being terminated through mixing with 20 μL (0.2 mg) yttrium silicate SPA beads (PerkinElmer). The beads were allowed to settle for 1 hour in the dark before the plates were counted in a Wallac 1450 Microbeta counter. The measured signals were converted to activity relative to an uninhibited control (100%) and IC50 values were calculated using XIFit (model 205, IDBS).

PDE1C = PDE1C (Homo sapiens (Human), UniProt Q14123); assay: PDE1 inhibition assay, PDE1C; details: for pIC50: 15 nM tritium labelled cAMP, 1 hr at room temperature, SPA beads, read-out: PDE1 C, IC50; for inhibition at 10 µM: @ 10 μM compound, read-out: PDE1 C, % inhibition @ 10 μM
Sequence of PDE1C (Q14123 whole entry): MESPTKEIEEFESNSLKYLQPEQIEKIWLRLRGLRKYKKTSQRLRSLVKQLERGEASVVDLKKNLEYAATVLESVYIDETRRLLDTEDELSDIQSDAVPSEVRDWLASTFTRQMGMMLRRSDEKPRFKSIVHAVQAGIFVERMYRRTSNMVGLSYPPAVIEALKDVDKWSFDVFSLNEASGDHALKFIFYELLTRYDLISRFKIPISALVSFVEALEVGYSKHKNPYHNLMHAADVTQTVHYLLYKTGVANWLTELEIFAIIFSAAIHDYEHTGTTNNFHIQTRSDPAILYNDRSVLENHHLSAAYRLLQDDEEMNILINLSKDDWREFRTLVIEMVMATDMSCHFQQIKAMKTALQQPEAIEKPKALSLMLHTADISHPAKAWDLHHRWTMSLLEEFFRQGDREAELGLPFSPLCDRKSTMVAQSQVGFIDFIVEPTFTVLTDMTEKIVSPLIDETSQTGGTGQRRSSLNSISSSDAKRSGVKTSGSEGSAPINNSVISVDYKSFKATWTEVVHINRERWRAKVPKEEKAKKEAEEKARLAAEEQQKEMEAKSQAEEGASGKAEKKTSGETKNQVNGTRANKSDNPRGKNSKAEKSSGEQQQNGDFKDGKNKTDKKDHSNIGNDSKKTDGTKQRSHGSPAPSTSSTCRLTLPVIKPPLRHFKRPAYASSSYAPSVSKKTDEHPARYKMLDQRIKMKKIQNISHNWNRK
Protocol: as §1

PDE1B = PDE1B (Homo sapiens (Human), UniProt Q01064); assay: PDE1 inhibition assay, PDE1B; details: for pIC50: 15 nM tritium labelled cAMP, 1 hr at room temperature, SPA beads, read-out: PDE1 B, IC50
Sequence of PDE1B (Q01064 whole entry): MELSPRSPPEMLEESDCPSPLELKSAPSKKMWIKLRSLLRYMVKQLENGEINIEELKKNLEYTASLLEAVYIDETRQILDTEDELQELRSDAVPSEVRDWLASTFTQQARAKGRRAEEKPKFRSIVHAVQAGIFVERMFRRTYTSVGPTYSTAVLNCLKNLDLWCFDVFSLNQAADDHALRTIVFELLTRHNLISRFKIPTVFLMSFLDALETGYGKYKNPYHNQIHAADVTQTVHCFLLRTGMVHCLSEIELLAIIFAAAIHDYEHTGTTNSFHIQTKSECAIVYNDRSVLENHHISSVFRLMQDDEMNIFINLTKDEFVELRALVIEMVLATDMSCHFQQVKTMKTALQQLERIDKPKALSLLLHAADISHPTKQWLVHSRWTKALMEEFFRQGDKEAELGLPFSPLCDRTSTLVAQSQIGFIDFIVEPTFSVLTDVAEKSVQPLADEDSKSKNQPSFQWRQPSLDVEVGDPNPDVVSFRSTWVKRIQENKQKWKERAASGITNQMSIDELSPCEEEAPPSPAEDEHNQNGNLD
Protocol: as §1

Sequence of PDE1A (P54750 whole entry): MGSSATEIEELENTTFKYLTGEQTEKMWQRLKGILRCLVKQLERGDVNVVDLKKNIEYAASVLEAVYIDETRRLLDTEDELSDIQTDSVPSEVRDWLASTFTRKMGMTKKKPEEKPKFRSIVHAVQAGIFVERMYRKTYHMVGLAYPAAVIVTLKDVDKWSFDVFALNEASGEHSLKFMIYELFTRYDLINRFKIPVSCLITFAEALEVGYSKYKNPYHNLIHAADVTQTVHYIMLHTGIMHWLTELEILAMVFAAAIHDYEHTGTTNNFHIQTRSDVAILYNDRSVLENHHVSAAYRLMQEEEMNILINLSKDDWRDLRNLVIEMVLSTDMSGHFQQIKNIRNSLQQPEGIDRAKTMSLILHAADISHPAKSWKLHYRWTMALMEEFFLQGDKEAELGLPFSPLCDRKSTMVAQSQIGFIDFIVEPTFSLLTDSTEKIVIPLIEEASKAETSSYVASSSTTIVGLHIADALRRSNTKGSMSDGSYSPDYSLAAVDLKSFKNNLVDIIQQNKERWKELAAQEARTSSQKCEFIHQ

pIC50 (PDE1A)	pIC50 (PDE1C)	pIC50 (PDE1B)	inhibition at 10 µM (PDE1A)	inhibition at 10 µM (PDE1C)	inhibition at 10 µM (PDE1B; @ 10 μM compound, read-out: PDE1 B, % inhibition @ 10 μM)	Compound
6.16	6.25	6.80				COc1ccccc1-c1nc2c(C)nn(C(C)C)c2cc1C [Example 62, 1-isopropyl-5-(2-methoxyphenyl)-3,6-dimethyl-pyrazolo[4,3-b]pyridine]
7.07	6.76	7.80				CCOc1ncccc1-c1nc2c(C)nn(C(C)C)c2cc1C [Example 63, 5-(2-ethoxy-3-pyridyl)-1-isopropyl-3,6-dimethyl-pyrazolo[4,3-b]pyridine]
6.93	6.66	7.60				CCCOc1ncccc1-c1nc2c(C)nn(C(C)C)c2cc1C [Example 64, 1-isopropyl-3,6-dimethyl-5-(2-propoxy-3-pyridyl)pyrazolo[4,3-b]pyridine]
7.30	6.95	8.15				CCOc1ncccc1-c1cc(NC)c2c(n1)c(C)nn2C(C)C [Example 65, 5-(2-ethoxy-3-pyridyl)-1-isopropyl-N,3-dimethyl-pyrazolo[4,3-b]pyridin-7-amine]
7.22	6.79	8.30				CCNc1cc(-c2cccnc2OCC)nc2c(C)nn(C(C)C)c12 [Example 66, 5-(2-ethoxy-3-pyridyl)-N-ethyl-1-isopropyl-3-methyl-pyrazolo[4,3-b]pyridin-7-amine]
7.28	7.06	7.92				CCOc1ncccc1-c1cc(NCC2CC(=O)N(C)C2)c2c(n1)c(C)nn2C(C)C (stereo not drawn) [Example 68, 4-[[[5-(2-ethoxy-3-pyridyl)-1-isopropyl-3-methyl-pyrazolo[4,3-b]pyridin-7-yl]amino]methyl]-1-methyl-pyrrolidin-2-one]
7.21	6.89	7.89				CCOc1ncccc1-c1cc(N)c2c(n1)c(C)nn2C(C)C [Example 69, 5-(2-ethoxy-3-pyridyl)-1-isopropyl-3-methyl-pyrazolo[4,3-b]pyridin-7-amine]
6.08	5.66	7.00				CCOc1ncccc1-c1ccc2c(cnn2C(C)C)n1 [Example 70, 5-(2-ethoxy-3-pyridyl)-1-isopropyl-pyrazolo[4,3-b]pyridine]
7.13	7.00	7.77				CCOc1ncccc1-c1nc2c(C)nc(C(C)C)n2cc1C [Example 71, 2-(2-ethoxy-3-pyridyl)-6-isopropyl-3,8-dimethyl-imidazo[1,5-a]pyrimidine]
7.02	6.67	7.47				CCOc1ncccc1-c1ccn2c(C(C)C)nc(C)c2n1 [Example 72, 2-(2-ethoxy-3-pyridyl)-6-isopropyl-8-methyl-imidazo[1,5-a]pyrimidine]
5.81	5.68	6.53				CCOc1ncccc1-c1ccn2c(C3CCC3)nc(C)c2n1 [Example 73, 6-cyclobutyl-2-(2-ethoxy-3-pyridyl)-8-methyl-imidazo[1,5-a]pyrimidine]
6.40	5.93	6.92				CCOc1ncccc1-c1ccn2c(C3CC3)nc(C)c2n1 [Example 74, 6-cyclopropyl-2-(2-ethoxy-3-pyridyl)-8-methyl-imidazo[1,5-a]pyrimidine]
6.35	6.14	6.62				CCOc1ncccc1-c1ccn2c(C3(C)COC3)nc(C)c2n1 [Example 77, 2-(2-ethoxy-3-pyridyl)-8-methyl-6-(3-methyloxetan-3-yl)imidazo[1,5-a]pyrimidine]
6.49	6.14	6.68				CCOc1ncccc1-c1ccn2c(CC(F)(F)F)nc(C)c2n1 [Example 78, 2-(2-ethoxy-3-pyridyl)-8-methyl-6-(2,2,2-trifluoroethyl)imidazo[1,5-a]pyrimidine]
6.39	6.20	7.11				CCOc1ncccc1-c1ccn2c(C3COC3)nc(C)c2n1 [Example 79, 2-(2-ethoxy-3-pyridyl)-8-methyl-6-(oxetan-3-yl)imidazo[1,5-a]pyrimidine]
5.49	5.64	6.23				CCOc1ncccc1-c1ccn2c(C3CCCC3)nc(C)c2n1 [Example 80, 6-cyclopentyl-2-(2-ethoxy-3-pyridyl)-8-methyl-imidazo[1,5-a]pyrimidine]
			29%	28%	54%	CCOc1ncccc1-c1ccn2c(C(C)(C)C)nc(C)c2n1 [Example 82, 6-tert-butyl-2-(2-ethoxy-3-pyridyl)-8-methyl-imidazo[1,5-a]pyrimidine]

Second part, the molecule before the results:

Compound	pIC50 (PDE1A)	pIC50 (PDE1C)	pIC50 (PDE1B)	inhibition at 10 µM (PDE1A)	inhibition at 10 µM (PDE1C)	inhibition at 10 µM (PDE1B; @ 10 μM compound, read-out: PDE1 B, % inhibition @ 10 μM)
COc1cncc(-c2cc(N[C@@H]3CCOC3)c3c(cnn3C(C)C)n2)c1 [Example 47, 1-isopropyl-5-(5-methoxy-3-pyridyl)-N-[(3R)-tetrahydrofuran-3-yl]pyrazolo[4,3-b]pyridin-7-amine]	5.82	5.81	6.22			
CC(C)n1ncc2nc(-c3cccc(OC(F)F)c3)cc(N[C@@H]3CCOC3)c21 [Example 48, 5-[3-(difluoromethoxy)phenyl]-1-isopropyl-N-[(3R)-tetrahydrofuran-3-yl]pyrazolo[4,3-b]pyridin-7-amine]	5.96	5.76	6.42			
COc1ncncc1-c1cc(N[C@@H]2CCOC2)c2c(cnn2C(C)C)n1 [Example 49, 1-isopropyl-5-(4-methoxypyrimidin-5-yl)-N-[(3R)-tetrahydrofuran-3-yl]pyrazolo[4,3-b]pyridin-7-amine]		5.73	5.57	43%		
COc1cnc(C)c(-c2cc(N[C@@H]3CCOC3)c3c(cnn3C(C)C)n2)c1 [Example 51, 1-isopropyl-5-(5-methoxy-2-methyl-3-pyridyl)-N-[(3R)-tetrahydrofuran-3-yl]pyrazolo[4,3-b]pyridin-7-amine]		5.41	5.49	20%		
COc1ncc(C)cc1-c1cc(N[C@@H]2CCOC2)c2c(cnn2C(C)C)n1 [Example 52, 1-isopropyl-5-(2-methoxy-5-methyl-3-pyridyl)-N-[(3R)-tetrahydrofuran-3-yl]pyrazolo[4,3-b]pyridin-7-amine]		5.74	5.88	56%		
CCOc1ccccc1-c1cc(N[C@@H]2CCOC2)c2c(cnn2C(C)C)n1 [Example 53, 5-(2-ethoxyphenyl)-1-isopropyl-N-[(3R)-tetrahydrofuran-3-yl]pyrazolo[4,3-b]pyridin-7-amine]			6.52	73%	61%	
COc1ncc(C#N)cc1-c1cc(N[C@@H]2CCOC2)c2c(cnn2C(C)C)n1 [Example 54, 5-[1-isopropyl-7-[[(3R)-tetrahydrofuran-3-yl]amino]pyrazolo[4,3-b]pyridin-5-yl]-6-methoxy-pyridine-3-carbonitrile]		5.62	5.82	59%		
CCOc1ncc(C#N)cc1-c1cc(N[C@@H]2CCOC2)c2c(cnn2C(C)C)n1 [Example 55, 6-ethoxy-5-[1-isopropyl-7-[[(3R)-tetrahydrofuran-3-yl]amino]pyrazolo[4,3-b]pyridin-5-yl]pyridine-3-carbonitrile]		5.60	5.86	69%		
CCc1ncccc1-c1cc(N[C@@H]2CCOC2)c2c(cnn2C(C)C)n1 [Example 56, 5-(2-ethyl-3-pyridyl)-1-isopropyl-N-[(3R)-tetrahydrofuran-3-yl]pyrazolo[4,3-b]pyridin-7-amine]			5.82	51%	59%	
COc1ccc(Cc2cc(N[C@@H]3CCOC3)c3c(cnn3C(C)C)n2)cc1 [Example 57, 1-isopropyl-5-[(4-methoxyphenyl)methyl]-N-[(3R)-tetrahydrofuran-3-yl]pyrazolo[4,3-b]pyridin-7-amine]	6.06	6.30	6.52			
COCc1ncccc1-c1cc(N[C@@H]2CCOC2)c2c(cnn2C(C)C)n1 [Example 58, 1-isopropyl-5-[2-(methoxymethyl)-3-pyridyl]-N-[(3R)-tetrahydrofuran-3-yl]pyrazolo[4,3-b]pyridin-7-amine]			5.66	52%	31%	
CCOc1ncccc1-c1ccc2c(n1)c(C)nn2C(C)C [Example 59, 5-(2-ethoxy-3-pyridyl)-1-isopropyl-3-methyl-pyrazolo[4,3-b]pyridine]	7.28	6.74	7.59			
Cc1cc2c(nc1-c1ccccc1)c(C)nn2C(C)C [Example 60, 1-isopropyl-3,6-dimethyl-5-phenyl-pyrazolo[4,3-b]pyridine]	6.65	6.70	6.91			
COc1ncccc1-c1nc2c(C)nn(C(C)C)c2cc1C [Example 61, 1-isopropyl-5-(2-methoxy-3-pyridyl)-3,6-dimethyl-pyrazolo[4,3-b]pyridine]	6.54	6.63	7.08			
